Where “and” joins values, the source holds several entries; their conditions need not be identical. Equal entries are not always repeated. Where two headings read alike, the source gives them in different places.
Columns and labels:
[1] = biological target: human α-thrombin (Homo sapiens, UniProt P00734); assay: biochemical; format: biochemical; conditions: read-out: Ki
Description: The inhibition of human α-thrombin was determined by the inhibition of the enzyme catalyzed hydrolysis of three different concentrations of the chromogenic substrate S-2238.
200 μl of sample or buffer and 50 μl of S-2238 were incubated at 37° C. for 1 min and 50 μl of human α-thrombin (0.25 NIHu/ml) was added. The initial rate of inhibited and uninhibited reactions were recorded at 405 nm. The increase in optical density was plotted according to the method of Lineweaver and Burke. The Km and apparent Km were determined and Ki was calculated using the relationship: [formula]

[2] = biological target: T1, bovine thrombin in citrated normal human plasma (Bos taurus, UniProt P00735); assay: Plasma thrombin time (TT), in vitro; format: biochemical; conditions: inhibitor concentration that caused a doubling of the thrombin time
T1 construct: freshly prepared bovine thrombin (5 NIHu/ml saline)
Description: (§1) A volume of 150 μl of citrated normal human plasma and 20 μl of buffer or sample were warmed at 37° C. for 1 min. Coagulation was started by adding 150 ul of freshly prepared bovine thrombin (5 NIHu/ml saline) and the coagulation time was recorded on a coagulometer.
(§2) A phosphate buffer, pH 7.8, containing 0.1% bovine serum albumine and 0.02% sodium azide was used. The samples were dissolved in DMSO and diluted with the buffer. When no inhibitor was used DMSO was added to the buffer to the same concentration as that used in the samples. The inhibitor concentrations were plotted against the thrombin times in a semilogarithmic graph from which the inhibitor concentration that caused a doubling (40 sec) of the thrombin time was determined.

[3] = test system: citrated normal human plasma; assay: Activated partial thromboplastin time (APTT) for in vitro samples; format: biochemical
Description: (§3) A volume of 150 μl of citrated (3.2%) normal human plasma was incubated at 37° C. with sample (20 μl) or buffer (20 μl, control) for 1 min. To the solution was added reconstituted “AUTOMATED APTT” (available from Organon Teknika, 0.1 ml). Each solution was activated at 37° C. for 5 min.
(§4) After activation, calcium chloride (0.1 ml, 0.025M, prewarmed at 37° C.) was added and clot detection was timed using a “semiautomated coagulometer” (Nach, Schnicter und Gross).

[4] = test system: 111indium-labelled platelets; assay: Deposition of 111indium-labelled platelets after intravenous dose; format: in vivo, New Zealand white rabbits; conditions: 1 mg/kg i.v. dose
Description: M. Hero, K. D. Butler, C. […] Peripheral blood pressure was monitored by a pressure sensor in the carotid artery.

[5] = Peripheral blood pressure after intravenous dose; format: in vivo, New Zealand white rabbits; conditions: 1 mg/kg i.v. dose
Description: […] R. May, C. M. Hero, K. D. Butler, C. P. Page, JOURNAL OF PHARMACOLOGICAL METHODS, 24, pp 1-35, 1990. Peripheral blood pressure was monitored by a pressure sensor in the carotid artery.

[6] = test system: bovine thrombin in plasma samples; assay: Ex-vivo TT; format: in vivo, New Zealand white rabbits; design: key: thrombin (coagulation) time in seconds; conditions: 1 mg/kg i.v. bolus, rabbit
Description: as §1, §2
(§5) Data was obtained as for in-vitro tests, but using plasma samples obtained at 0, 1, 10, 30 and 60 minutes after dosing of 1 mg/kg, i.v. bolus injection in a marginal ear vein in New Zealand white rabbits, which were anaesthetized from a canula in the carotid artery. [drawing 18]

[7] = test system: plasma samples; assay: Ex-vivo APTT; format: in vivo, New Zealand white rabbits; design: unit not given here; conditions: 1 mg/kg i.v. bolus, rabbit
Description: as §3, §4, §5

[8] = IC50 with and without incubation (enzyme not given); format: biochemical
[9] = biological target: Plasmin (Homo sapiens, UniProt P00747); assay: IC50 against plasmin; format: biochemical
Plasmin, sequence (P00747 97-580 limits assumed, species assumed): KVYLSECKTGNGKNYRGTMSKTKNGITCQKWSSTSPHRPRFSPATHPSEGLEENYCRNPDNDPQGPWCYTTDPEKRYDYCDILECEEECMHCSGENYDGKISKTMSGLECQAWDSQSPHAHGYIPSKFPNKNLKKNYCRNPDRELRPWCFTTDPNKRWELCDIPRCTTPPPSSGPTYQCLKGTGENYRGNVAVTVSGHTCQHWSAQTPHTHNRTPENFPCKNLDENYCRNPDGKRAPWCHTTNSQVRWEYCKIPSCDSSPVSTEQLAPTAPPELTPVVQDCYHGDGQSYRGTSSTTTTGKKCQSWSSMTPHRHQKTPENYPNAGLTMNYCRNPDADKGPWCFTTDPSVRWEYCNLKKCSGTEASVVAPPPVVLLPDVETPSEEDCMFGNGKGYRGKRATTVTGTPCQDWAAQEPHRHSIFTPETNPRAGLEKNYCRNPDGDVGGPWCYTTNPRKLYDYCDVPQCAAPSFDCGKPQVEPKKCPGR
Plasmin, sequence (P00747 581-810 limits assumed, species assumed): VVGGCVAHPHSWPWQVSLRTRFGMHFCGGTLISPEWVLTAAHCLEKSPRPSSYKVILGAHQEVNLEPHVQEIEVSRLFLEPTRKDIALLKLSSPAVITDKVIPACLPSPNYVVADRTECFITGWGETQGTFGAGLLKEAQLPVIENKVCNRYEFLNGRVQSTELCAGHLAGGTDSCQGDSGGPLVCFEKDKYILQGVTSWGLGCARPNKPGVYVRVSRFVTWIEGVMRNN

[10] = biological target: T2, Xa (Homo sapiens, UniProt P00742); assay: IC50 against Xa; format: biochemical
T2 construct: Plasmin; Xa; Urokinase
T2 sequence (P00742 41-179 limits assumed): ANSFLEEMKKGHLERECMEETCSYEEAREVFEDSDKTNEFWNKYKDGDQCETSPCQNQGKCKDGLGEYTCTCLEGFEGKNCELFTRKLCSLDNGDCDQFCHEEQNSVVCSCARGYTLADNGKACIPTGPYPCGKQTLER
T2 sequence (P00742 235-488 limits assumed): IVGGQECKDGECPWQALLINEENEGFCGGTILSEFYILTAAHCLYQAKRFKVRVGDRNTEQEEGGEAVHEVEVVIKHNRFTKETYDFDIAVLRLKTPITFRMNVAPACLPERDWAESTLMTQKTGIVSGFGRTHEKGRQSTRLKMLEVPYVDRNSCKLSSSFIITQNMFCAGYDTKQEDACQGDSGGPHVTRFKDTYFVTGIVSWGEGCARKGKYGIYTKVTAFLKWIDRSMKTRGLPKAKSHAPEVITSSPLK

[11] = biological target: Urokinase (Homo sapiens, UniProt P00749); assay: IC50 against urokinase; format: biochemical
[12] = test system: Kalhikrein; assay: IC50 against kallikrein; format: biochemical
[13] = no incubation, read-out: IC50 No Incubations
[14] = human α-thrombin, S-2238, 37° C.

SMILES: N=C(N)NCCCC(NC(=O)C1CCCN1C(=O)C(N)C(c1ccccc1)c1ccccc1)C(=O)CCC(=O)N1CCCCC1.O=C(O)C(F)(F)F.O=C(O)C(F)(F)F [Compound 6, D-Dpa-Pro-Arg--k--Gly-Pip]
- Ki [1]: 0.2 µM
- TT [2]: 0.65 µM
- APTT [3]: 8.0 µM
- PLATELET ACCUMULATION (% OF NORMAL) LEG [4]: NONE
- PLATELET ACCUMULATION (% OF NORMAL) LUNG [4]: NONE
- BLOOD PRESSURE Δ% of NORM [5]: NONE
- EX-VIVO T.T. ([6]; time 0 min): 24.4 and 25.6 and 32.9 and 27.9
- EX-VIVO T.T. ([6]; time 1 min): 176 and 200 and 260 and >200
- EX-VIVO T.T. ([6]; time 10 min): 55 and 61.4 and 76 and 57.5
- EX-VIVO T.T. ([6]; time 30 min): 33 and 36.9 and 62 and 36
- EX-VIVO T.T. ([6]; time 60 min): 25 and 27.9 and 49 and 31.5
- EX-VIVO A.P.T.T. ([7]; time 1 min): 46 and 78
- EX-VIVO A.P.T.T. ([7]; time 10 min): 32 and 55
- EX-VIVO A.P.T.T. ([7]; time 30 min): 34 and 57
- EX-VIVO A.P.T.T. ([7]; time 60 min): 27 and 42
- IC50 [8, 13]: 0.2 µM
- IC50 ([9]; single value given, incubation not given, read-out: Plasmin no inc/inc): > 157 µM
- IC50 ([10]; single value given, incubation not given, read-out: Xa no inc/inc): 149 µM
- IC50 ([11]; single value given, incubation not given, read-out: Urokinase no inc/inc): 494 µM
- IC50 ([12]; single value given, incubation not given, read-out: Kalhikrein no inc/inc): 199 µM

SMILES: N=C(N)NCCCC(NC(=O)C1CCCN1C(=O)C(N)Cc1ccc2ccccc2c1)C(=O)CCC(=O)N1CCCCC1 [Compound 54, D-β-Nal-Pro-Arg--k--Gly-Pip]
- Ki [1, 14]: 2.87 µM
- TT [2]: 5.3 µM
- APTT [3]: 45.0 µM

SMILES: N=C(N)NCCCC(NC(=O)C1CCCN1C(=O)C(N)C(c1ccccc1)c1ccccc1)C(=O)CCC(=O)N1CCCCC1.O=C(O)C(F)(F)F.O=C(O)C(F)(F)F (stereo not drawn) [Compound 7, L,Dpa-Pro-Arg--k--Gly-Pip]
- Ki [1]: 1.7 µM
- TT [2]: 7.5 µM
- APTT [3]: 100.0 µM

SMILES: N=C(N)NCCCC(NC(=O)C1CCCN1C(=O)C(N)C(c1ccccc1)c1ccccc1)C(=O)CCC(=O)N1CCCCC1 (mixture of isomers) [Compound 4, D,L-Dpa-Pro-Arg--k--Gly-Pip]
- Ki [1]: 0.6 µM
- APTT [3]: 45.0 µM

SMILES: COCCCC(NC(=O)[C@@H]1CCCN1C(=O)[C@H](N)C(c1ccccc1)c1ccccc1)P(=O)(Oc1ccccc1)Oc1ccccc1 (stereo partly drawn) [Compound 32, H-D-Dpa-Pro-Mpg^P(OPh)2]
- Ki [1, 14]: 0.0048 µM
- TT [2]: 9.1 µM
- IC50 [8, 13]: 1.48 µM
- IC50 ([8]; with incubation, read-out: IC50 Inc.): 0.00235 µM
- IC50 ([9]; no incubation (first value of cell), read-out: Plasmin no inc): > 187 µM
- IC50 ([9]; with incubation (second value of cell), read-out: Plasmin inc): 3.32 µM
- IC50 ([10]; no incubation (first value of cell), read-out: Xa no inc): 39.7 µM
- IC50 ([10]; with incubation (second value of cell), read-out: Xa inc): > 18.7 µM
- IC50 ([11]; no incubation (first value of cell), read-out: Urokinase no inc): 83 µM
- IC50 ([11]; with incubation (second value of cell), read-out: Urokinase inc): > 18.7 µM
- IC50 ([12]; no incubation (first value of cell), read-out: Kalhikrein no inc): 66.7 µM
- IC50 ([12]; with incubation (second value of cell), read-out: Kalhikrein inc): > 18.7 µM

— patent US6387881B1, “Inhibitors and substrates of thrombin” (priority 1992, dated 2002)
